# Measured values published in patent US8952024B2, “Herbicidal pyrimidone derivatives” (E I du Pont de Nemours and Company, priority 2009, dated 2015).
# Tests used:
# Format in all cases: in vivo
# [1] = tested on: velvetleaf (Abutilon theophrasti); assay: Test A pre-/postemergence plant response
# Excerpt: (§1) Seeds of barnyardgrass (Echinochloa crus-galli), large crabgrass (Digitaria sanguinalis), giant foxtail (Setaria faberii), morningglory (Ipomoea spp.), pigweed (Amaranthus retroflexus), velvetleaf (Abutilon theophrasti), wheat (Triticum aestivum) and corn (Zea mays) were planted into a blend of loam soil and sand and treated preemergence with a directed soil spray using test chemicals formulated in a non-phytotoxic solvent mixture which included a surfactant. At the same time these species were also treated with postemergence applications of test compounds formulated in the same manner.
# (§2) Plants ranged in height from two to ten cm and were in the one- to two-leaf stage for the postemergence treatment. Treated plants and untreated controls were maintained in a greenhouse for approximately ten days, after which time all treated plants were compared to untreated controls and visually evaluated for injury. Plant response ratings, summarized in Table A, are based on a 0 to 100 scale where 0 is no effect and 100 is complete control. A dash (-) response means no test result.
# [2] = tested on: barnyardgrass (Echinochloa crus-galli); assay: Test A pre-/postemergence plant response
# Excerpt: as §1, §2
# [3] = tested on: pigweed (Amaranthus retroflexus); assay: Test A pre-/postemergence plant response
# Excerpt: as §1, §2
# [4] = tested on: morningglory (Ipomoea spp.); assay: Test A pre-/postemergence plant response
# Excerpt: as §1, §2
# [5] = tested on: wheat (Triticum aestivum); assay: Test A pre-/postemergence plant response
# Excerpt: as §1, §2
# [6] = tested on: large crabgrass (Digitaria sanguinalis); assay: Test A pre-/postemergence plant response
# Excerpt: as §1, §2
# [7] = tested on: giant foxtail (Setaria faberii); assay: Test A pre-/postemergence plant response
# Excerpt: as §1, §2
# corn (Zea mays) = assay: Test A pre-/postemergence plant response
# Excerpt: as §1, §2
# [8] = tested on: barnyardgrass (Echinochloa crus-galli); assay: Test B flooded paddy test; conditions: for Plant response rating, Barnyardgrass: Flood (flooded paddy test), 13 to 15 days
# Excerpt: (§3) Plant species in the flooded paddy test consisted of rice (Oryza sativa), umbrella sedge (Cyperus difformis), ducksalad (Heteranthera limosa) and barnyardgrass (Echinochloa crus-galli) grown to the 2-leaf stage for testing. At the time of treatment, test pots were flooded with water to 3 cm above the soil surface, treated by application of test compounds directly to the paddy water, and then maintained at that water depth for the duration of the test.
# (§4) Treated plants and controls were maintained in a greenhouse for 13 to 15 days, after which time all treated plants were visually evaluated and compared to controls. Plant response ratings, summarized in Table B, are based on a scale of 0 to 100 where 0 is no effect and 100 is complete control. A dash (-) response means no test result.
# rice (Oryza sativa) = assay: Test B flooded paddy test; conditions: for Plant response rating, Rice: Flood (flooded paddy test), 13 to 15 days
# Excerpt: as §3, §4
# [9] = tested on: ducksalad (Heteranthera limosa); assay: Test B flooded paddy test; conditions: for Plant response rating, Ducksalad: Flood (flooded paddy test), 13 to 15 days
# Excerpt: as §3, §4
# [10] = tested on: umbrella sedge (Cyperus difformis); assay: Test B flooded paddy test; conditions: for Plant response rating, Sedge, Umbrella: Flood (flooded paddy test), 13 to 15 days
# Excerpt: as §3, §4
# [11] = Postemergence, 125 g ai/ha, visual injury, 0 to 100 scale (0 no effect, 100 complete control), approx. ten days
# [12] = Postemergence, 500 g ai/ha, 0 to 100 scale, 0 = no effect, 100 = complete control, approx. ten days
# [13] = Preemergence, 125 g ai/ha, 0 to 100 scale, 0 = no effect, 100 = complete control
# [14] = Preemergence, 500 g ai/ha, visual injury, 0 to 100 scale (0 no effect, 100 complete control), approx. ten days
# [15] = 250 g ai/ha, flooded paddy test, visual rating on 0 to 100 scale (0 no effect, 100 complete control) after 13 to 15 days
# [16] = 31 g ai/ha, scale of 0 to 100 where 0 is no effect and 100 is complete control
# [17] = 62 g ai/ha, scale 0 to 100, 0 is no effect, 100 is complete control
# [18] = 125 g ai/ha, scale 0 to 100, 0 is no effect, 100 is complete control
# [19] = Postemergence, 125 g ai/ha, 0 to 100 scale where 0 is no effect and 100 is complete control
# [20] = Postemergence, 500 g ai/ha, visual injury, 0 to 100 scale (0 no effect, 100 complete control), approx. ten days
# [21] = Preemergence, 500 g ai/ha, 0 to 100 scale, 0 = no effect, 100 = complete control
# [22] = Preemergence, 125 g ai/ha, 0 to 100 scale where 0 is no effect and 100 is complete control, approximately ten days
smiles,measurement,setting,value
O=C1CCCC([O-])=C1C(=O)c1cnc(-c2ccccc2)n(-c2ccc(Cl)cc2)c1=O.[K+] [Compound 13],Velvetleaf plant response rating,[1]; [11],100
same,"Plant response rating, Velvetleaf",[1]; [12],100
same,"Plant response rating, Velvetleaf",[1]; [13],80
same,"Plant response rating, Velvetleaf",[1]; [14],100
same,Barnyardgrass plant response rating,[2]; [11],30
same,"Plant response rating, Barnyardgrass",[2]; [12],90
same,"Plant response rating, Barnyardgrass",[2]; [13],10
same,"Plant response rating, Barnyardgrass",[2]; [14],90
same,Pigweed plant response rating,[3]; [11],80
same,"Plant response rating, Pigweed",[3]; [12],100
same,"Plant response rating, Pigweed",[3]; [13],40
same,"Plant response rating, Pigweed",[3]; [14],100
same,Morningglory plant response rating,[4]; [11],0
same,"Plant response rating, Morningglory",[4]; [12],50
same,"Plant response rating, Morningglory",[4]; [13],0
same,"Plant response rating, Morningglory",[4]; [14],0
same,Wheat plant response rating,[5]; [11],10
same,"Plant response rating, Wheat",[5]; [12],60
same,"Plant response rating, Wheat",[5]; [13],0
same,"Plant response rating, Wheat",[5]; [14],40
same,"Crabgrass, Large plant response rating",[6]; [11],30
same,"Plant response rating, Crabgrass, Large",[6]; [12],90
same,"Plant response rating, Crabgrass, Large",[6]; [13],60
same,"Plant response rating, Crabgrass, Large",[6]; [14],100
same,"Foxtail, Giant plant response rating",[7]; [11],30
same,"Plant response rating, Foxtail, Giant",[7]; [12],80
same,"Plant response rating, Foxtail, Giant",[7]; [13],50
same,"Plant response rating, Foxtail, Giant",[7]; [14],90
same,Corn plant response rating,corn (Zea mays); [11],0
same,"Plant response rating, Corn",corn (Zea mays); [12],50
same,"Plant response rating, Corn",corn (Zea mays); [13],0
same,"Plant response rating, Corn",corn (Zea mays); [14],20
same,"Plant response rating, Flood, Barnyardgrass",[8]; [15],35
same,"Plant response rating, Barnyardgrass",[8]; [16],0
same,"Plant response rating, Barnyardgrass",[8]; [17],0
same,"Plant response rating, Barnyardgrass",[8]; [18],0
same,"Plant response rating, Flood, Rice",rice (Oryza sativa); [15],25
same,"Plant response rating, Rice",rice (Oryza sativa); [16],0
same,"Plant response rating, Rice",rice (Oryza sativa); [17],0
same,"Plant response rating, Rice",rice (Oryza sativa); [18],0
same,"Plant response rating, Flood, Ducksalad",[9]; [15],95
same,"Plant response rating, Ducksalad",[9]; [16],0
same,"Plant response rating, Ducksalad",[9]; [17],0
same,"Plant response rating, Ducksalad",[9]; [18],0
same,"Plant response rating, Flood, Sedge, Umbrella",[10]; [15],85
same,"Plant response rating, Sedge, Umbrella",[10]; [16],0
same,"Plant response rating, Sedge, Umbrella",[10]; [17],0
same,"Plant response rating, Sedge, Umbrella",[10]; [18],60
CCCn1c(-c2ccc3c(c2)OCCO3)ncc(C(=O)C2=C(O)C3CCC(C3)C2=O)c1=O (stereo not drawn) [Compound 241],"Plant response rating, Velvetleaf",[1]; [19],100
same,Velvetleaf plant response rating,[1]; [20],100
same,"Plant response rating, Velvetleaf",[1]; [13],20
same,"Plant response rating, Velvetleaf",[1]; [21],60
same,"Plant response rating, Barnyardgrass",[2]; [19],90
same,Barnyardgrass plant response rating,[2]; [20],90
same,"Plant response rating, Barnyardgrass",[2]; [13],10
same,"Plant response rating, Barnyardgrass",[2]; [21],90
same,"Plant response rating, Pigweed",[3]; [19],70
same,Pigweed plant response rating,[3]; [20],80
same,"Plant response rating, Pigweed",[3]; [13],20
same,"Plant response rating, Pigweed",[3]; [21],50
same,"Plant response rating, Morningglory",[4]; [19],100
same,Morningglory plant response rating,[4]; [20],100
same,"Plant response rating, Morningglory",[4]; [13],0
same,"Plant response rating, Morningglory",[4]; [21],30
same,"Plant response rating, Wheat",[5]; [19],40
same,Wheat plant response rating,[5]; [20],60
same,"Plant response rating, Wheat",[5]; [13],0
same,"Plant response rating, Wheat",[5]; [21],40
same,"Plant response rating, Crabgrass, Large",[6]; [19],50
same,"Crabgrass, Large plant response rating",[6]; [20],70
same,"Plant response rating, Crabgrass, Large",[6]; [13],20
same,"Plant response rating, Crabgrass, Large",[6]; [21],90
same,"Plant response rating, Foxtail, Giant",[7]; [19],80
same,"Foxtail, Giant plant response rating",[7]; [20],90
same,"Plant response rating, Foxtail, Giant",[7]; [13],10
same,"Plant response rating, Foxtail, Giant",[7]; [21],70
same,"Plant response rating, Corn",corn (Zea mays); [19],20
same,Corn plant response rating,corn (Zea mays); [20],50
same,"Plant response rating, Corn",corn (Zea mays); [13],0
same,"Plant response rating, Corn",corn (Zea mays); [21],20
CCCn1c(-c2ccc3ccccc3c2)ncc(C(=O)C2=C(O)C3CCC(C3)C2=O)c1=O (stereo not drawn) [Compound 242],"Plant response rating, Velvetleaf",[1]; [19],50
same,Velvetleaf plant response rating,[1]; [20],90
same,"Plant response rating, Velvetleaf",[1]; [13],0
same,"Plant response rating, Velvetleaf",[1]; [21],0
same,"Plant response rating, Barnyardgrass",[2]; [19],50
same,Barnyardgrass plant response rating,[2]; [20],90
same,"Plant response rating, Barnyardgrass",[2]; [13],0
same,"Plant response rating, Barnyardgrass",[2]; [21],0
same,"Plant response rating, Pigweed",[3]; [19],20
same,Pigweed plant response rating,[3]; [20],30
same,"Plant response rating, Pigweed",[3]; [13],0
same,"Plant response rating, Pigweed",[3]; [21],0
same,"Plant response rating, Morningglory",[4]; [19],40
same,Morningglory plant response rating,[4]; [20],100
same,"Plant response rating, Morningglory",[4]; [13],0
same,"Plant response rating, Morningglory",[4]; [21],0
same,"Plant response rating, Wheat",[5]; [19],0
same,Wheat plant response rating,[5]; [20],30
same,"Plant response rating, Wheat",[5]; [13],0
same,"Plant response rating, Wheat",[5]; [21],0
same,"Plant response rating, Crabgrass, Large",[6]; [19],20
same,"Crabgrass, Large plant response rating",[6]; [20],60
same,"Plant response rating, Crabgrass, Large",[6]; [13],0
same,"Plant response rating, Crabgrass, Large",[6]; [21],10
same,"Plant response rating, Foxtail, Giant",[7]; [19],50
same,"Foxtail, Giant plant response rating",[7]; [20],80
same,"Plant response rating, Foxtail, Giant",[7]; [13],0
same,"Plant response rating, Foxtail, Giant",[7]; [21],0
same,"Plant response rating, Corn",corn (Zea mays); [19],0
same,Corn plant response rating,corn (Zea mays); [20],20
same,"Plant response rating, Corn",corn (Zea mays); [13],0
same,"Plant response rating, Corn",corn (Zea mays); [21],0
O=C(C1=C(O)C2CCC(C2)C1=O)c1cnc(-c2ccccc2)n(C2CCCCCCCCCCC2)c1=O (stereo not drawn) [Compound 247],"Plant response rating, Velvetleaf",[1]; [11],100
same,Velvetleaf plant response rating,[1]; [20],100
same,"Plant response rating, Velvetleaf",[1]; [22],0
same,"Plant response rating, Velvetleaf",[1]; [21],0
same,"Plant response rating, Barnyardgrass",[2]; [19],30
same,Barnyardgrass plant response rating,[2]; [20],80
same,"Plant response rating, Barnyardgrass",[2]; [22],0
same,"Plant response rating, Barnyardgrass",[2]; [21],0
same,"Plant response rating, Pigweed",[3]; [11],70
same,Pigweed plant response rating,[3]; [20],90
same,"Plant response rating, Pigweed",[3]; [22],0
same,"Plant response rating, Pigweed",[3]; [21],0
same,"Plant response rating, Morningglory",[4]; [11],100
same,Morningglory plant response rating,[4]; [20],100
same,"Plant response rating, Morningglory",[4]; [22],0
same,"Plant response rating, Morningglory",[4]; [21],0
same,"Plant response rating, Wheat",[5]; [11],0
same,Wheat plant response rating,[5]; [20],0
same,"Plant response rating, Wheat",[5]; [22],0
same,"Plant response rating, Wheat",[5]; [21],0
same,"Plant response rating, Crabgrass, Large",[6]; [19],40
same,"Crabgrass, Large plant response rating",[6]; [20],70
same,"Plant response rating, Crabgrass, Large",[6]; [22],0
same,"Plant response rating, Crabgrass, Large",[6]; [21],0
same,"Plant response rating, Foxtail, Giant",[7]; [11],0
same,"Foxtail, Giant plant response rating",[7]; [20],30
same,"Plant response rating, Foxtail, Giant",[7]; [22],0
same,"Plant response rating, Foxtail, Giant",[7]; [21],0
same,"Plant response rating, Corn",corn (Zea mays); [19],0
same,Corn plant response rating,corn (Zea mays); [20],30
same,"Plant response rating, Corn",corn (Zea mays); [22],0
same,"Plant response rating, Corn",corn (Zea mays); [21],0
